According to patent US11066443B2 (Hoffmann-La Roche Inc., priority 2017, dated 2021):

Tested on: P. aeruginosa NCTC11454
Assay: Antimicrobial susceptibility testing: 50% growth inhibitory concentration (IC50) determination
Format: cell-based
Conditions: Pseudomonas aeruginosa, Iso-Sensitest broth, OD 600 nm every 20 minutes over 16h, growth inhibition during logarithmic growth
Protocol: The in vitro antimicrobial activity of the compounds was alternatively determined according to the following procedure: The assay used a 10-points Iso-Sensitest broth medium to measure quantitatively the in vitro activity of the compounds against P. aeruginosa NCTC11454. Stock compounds in DMSO were serially twofold diluted (e.g. range from 50 to 0.097 μM final concentration) in 384 wells microtiter plates and inoculated with 49 μl the bacterial suspension in Iso-Sensitest medium to have a final cell concentration of ˜5×10^(5) CFU/ml in a final volume/well of 50 ul/well. Microtiter plates were incubated at 35±2° C. Bacterial cell growth was determined with the measurement of optical density at λ=600 nm each 20 minutes over a time course of 16h. Growth inhibition was calculated during the logarithmic growth of the bacterial cells with determination of the concentration inhibiting 50% (IC50) and 90% (IC90) of the growth. Table 2 provides the 50% growth inhibitory concentrations (IC50) in micromoles per liter of the compounds of present invention obtained against P. aeruginosa NCTC11454.

Row | IC50 [µM] | SMILES
1 | 22.9 | CN1C(=O)[C@H](CCCCN)NC(=O)[C@H](CCCN)NCc2ccccc2Sc2ncc(Cl)cc2CNC(=O)[C@@H]1Cc1c[nH]c2ccccc12 [Example 43]
2 | 10.1 | CN1C(=O)[C@H](CCCCN)NC(=O)[C@H](CCCN)NCc2cccnc2Sc2c(cc(-c3ccccc3)cc2C(F)(F)F)CNC(=O)[C@@H]1Cc1c[nH]c2ccccc12 [Example 22, (11S,14S,17S)-14-(4-Amino-butyl)-11-(3-amino-propyl)-17-(1H-indol-3-ylmethyl)-16-methyl-23-phenyl-25-trifluoromethyl-2-thia-4,10,13,16,19-pentaaza-tricyclo[19.4.0.0*3,8*]pentacosa-1(25),3,5,7,21,23-hexaene-12,15,18-trione]
3 | 12.5 | CN1C(=O)[C@H](CCCCN)NC(=O)[C@H](CCCN)NCc2ccccc2Sc2c(Cl)cc(Br)cc2CNC(=O)[C@@H]1Cc1c[nH]c2ccccc12 [Example 36, (12S,15S,18S)-15-(4-Amino-butyl)-18-(3-amino-propyl)-6-bromo-4-chloro-12-(1H-indol-3-ylmethyl)-13-methyl-2-thia-10,13,16,19-tetraaza-tricyclo[19.4.0.0*3,8*]pentacosa-1(25),3,5,7,21,23-hexaene-11,14,17-trione]
4 | 3.47 | CN1C(=O)[C@H](CCCCN)NC(=O)[C@H](CCCN)NCc2ccccc2Sc2c(ccc(-c3ccccc3)c2Cl)CNC(=O)[C@@H]1Cc1c[nH]c2ccccc12 [Example 42, (12S,15S,18S)-15-(4-Amino-butyl)-18-(3-amino-propyl)-4-chloro-12-(1H-indol-3-ylmethyl)-13-methyl-5-phenyl-2-thia-10,13,16,19-tetraaza-tricyclo[19.4.0.0*3,8*]pentacosa-1(25),3,5,7,21,23-hexaene-11,14,17-trione]
5 | 8.47 | CN1C(=O)[C@H](CCCCN)NC(=O)[C@H](CCCN)NCc2cc(-c3ccc(CN)cc3)ccc2Sc2c(Cl)cccc2CNC(=O)[C@@H]1Cc1c[nH]c2ccccc12 [Example 50, (12S,15S,18S)-15-(4-Amino-butyl)-23-(4-aminomethyl-phenyl)-18-(3-amino-propyl)-4-chloro-12-(1H-indol-3-ylmethyl)-13-methyl-2-thia-10,13,16,19-tetraaza-tricyclo[19.4.0.0*3,8*]pentacosa-1(25),3,5,7,21,23-hexaene-11,14,17-trione]
6 | 32 | CN1C(=O)[C@H](CCCCN)NC(=O)[C@H](CCCN)NCc2ccccc2Sc2ccc(Cl)cc2CNC(=O)[C@@H]1Cc1c[nH]c2ccccc12 [Example 1, (12S,15S,18S)-15-(4-Amino-butyl)-18-(3-amino-propyl)-6-chloro-12-(1H-indol-3-ylmethyl)-13-methyl-2-thia-10,13,16,19-tetraaza-tricyclo[19.4.0.0*3,8*]pentacosa-1(21),3,5,7,22,24-hexaene-11,14,17-trione]
7 | 10.8 | CN1C(=O)[C@H](CCCCN)NC(=O)[C@H](CCCN)NCc2cc(-c3ccccc3)ccc2Sc2c(Cl)cccc2CNC(=O)[C@@H]1Cc1c[nH]c2ccccc12 [Example 49, (12S,15S,18S)-15-(4-Amino-butyl)-18-(3-amino-propyl)-4-chloro-12-(1H-indol-3-ylmethyl)-13-methyl-23-phenyl-2-thia-10,13,16,19-tetraaza-tricyclo[19.4.0.0*3,8*]pentacosa-1(25),3,5,7,21,23-hexaene-11,14,17-trione]
8 | 12.6 | CN1C(=O)[C@H](CCCCN)NC(=O)[C@H](CCCN)NCc2ccccc2Sc2cc(C(F)(F)F)ccc2CNC(=O)[C@@H]1Cc1c[nH]c2ccccc12 [Example 4, (12S,15S,18S)-15-(4-Amino-butyl)-18-(3-amino-propyl)-12-(1H-indol-3-ylmethyl)-13-methyl-5-trifluoromethyl-2-thia-10,13,16,19-tetraaza-tricyclo[19.4.0.0*3,8*]pentacosa-1(21),3,5,7,22,24-hexaene-11,14,17-trione]
9 | 11.6 | CN1C(=O)[C@H](CCCCN)NC(=O)[C@H](CCCN)NCc2ccc(-c3ccccc3)cc2Sc2c(Cl)cccc2CNC(=O)[C@@H]1Cc1c[nH]c2ccccc12 [Example 52, (12S,15S,18S)-15-(4-Amino-butyl)-18-(3-amino-propyl)-4-chloro-12-(1H-indol-3-ylmethyl)-13-methyl-24-phenyl-2-thia-10,13,16,19-tetraaza-tricyclo[19.4.0.0*3,8*]pentacosa-1(25),3,5,7,21,23-hexaene-11,14,17-trione]
10 | 6.5 | CN1C(=O)[C@H](CCCCN)NC(=O)[C@H](CCCN)NCc2ccccc2Sc2c(ccc(Br)c2Cl)CNC(=O)[C@@H]1Cc1c[nH]c2ccccc12 [Example 41, (12S,15S,18S)-15-(4-Amino-butyl)-18-(3-amino-propyl)-5-bromo-4-chloro-12-(1H-indol-3-ylmethyl)-13-methyl-2-thia-10,13,16,19-tetraaza-tricyclo[19.4.0.0*3,8*]pentacosa-1(25),3,5,7,21,23-hexaene-11,14,17-trione]
11 | 24.3 | Cc1cc(Cl)cc2c1Sc1ccccc1CN[C@@H](CCCN)C(=O)N[C@@H](CCCCN)C(=O)N(C)[C@@H](Cc1c[nH]c3ccccc13)C(=O)NC2 [Example 14, (12S,15S,18S)-15-(4-Amino-butyl)-18-(3-amino-propyl)-6-chloro-12-(1H-indol-3-ylmethyl)-4,13-dimethyl-2-thia-10,13,16,19-tetraaza-tricyclo[19.4.0.0*3,8*]pentacosa-1(25),3,5,7,21,23-hexaene-11,14,17-trione]
12 | 7.62 | CN1C(=O)[C@H](CCCCN)NC(=O)[C@H](CCCN)NCc2ccccc2Sc2ccc(Cl)cc2CNC(=O)[C@@H]1Cc1c[nH]c2cc(Cl)ccc12 [Example 7, (12S,15S,18S)-15-(4-Amino-butyl)-18-(3-amino-propyl)-6-chloro-12-(6-chloro-1H-indol-3-ylmethyl)-13-methyl-2-thia-10,13,16,19-tetraaza-tricyclo[19.4.0.0*3,8*]pentacosa-1(21),3,5,7,22,24-hexaene-11,14,17-trione]
13 | 27 | Cc1[nH]c2ccccc2c1C[C@H]1C(=O)NCc2cc(-c3ccnc(Cl)c3)cc(Cl)c2Sc2ncccc2CN[C@@H](CCCN)C(=O)N[C@@H](CCCCN)C(=O)N1C [Example 44, (11S,14S,17S)-14-(4-Amino-butyl)-11-(3-amino-propyl)-25-chloro-23-(2-chloro-pyridin-4-yl)-16-methyl-17-(2-methyl-1H-indol-3-ylmethyl)-2-thia-4,10,13,16,19-pentaaza-tricyclo[19.4.0.0*3,8*]pentacosa-1(25),3(8),4,6,21,23-hexaene-12,15,18-trione]
14 | 10.7 | CN1C(=O)[C@H](CCCCN)NC(=O)[C@H](CCCN)NCc2ccccc2Sc2c(Cl)ccc(C(F)(F)F)c2CNC(=O)[C@@H]1Cc1c[nH]c2ccccc12 [Example 10, (12S,15S,18S)-15-(4-Amino-butyl)-18-(3-amino-propyl)-4-chloro-12-(1H-indol-3-ylmethyl)-13-methyl-7-trifluoromethyl-2-thia-10,13,16,19-tetraaza-tricyclo[19.4.0.0*3,8*]pentacosa-1(25),3,5,7,21,23-hexaene-11,14,17-trione]
15 | 7.15 | CN1C(=O)[C@H](CCCCN)NC(=O)[C@H](CCCN)NCc2ccccc2Sc2c(Cl)cc(-c3ccccc3)cc2CNC(=O)[C@@H]1Cc1c[nH]c2ccccc12 [Example 32, (12S,15S,18S)-15-(4-Amino-butyl)-18-(3-amino-propyl)-4-chloro-12-(1H-indol-3-ylmethyl)-13-methyl-6-phenyl-2-thia-111,13,16,19-tetraaza-tricyclo[19.4.0.0*3,8*]pentacosa-1(25),3,5,7,21,23-hexaene-11,14,17-trione]
16 | 14.5 | CN1C(=O)[C@H](CCCCN)NC(=O)[C@H](CCC(N)=O)NCc2ccccc2Sc2c(cc(-c3ccccc3)cc2C(F)(F)F)CNC(=O)[C@@H]1Cc1c[nH]c2ccccc12 [Example 38, 3-[(11S,14S,17S)-14-(4-Amino-butyl)-17-(1H-indol-3-ylmethyl)-16-methyl-12,15,18-trioxo-23-phenyl-25-trifluoromethyl-2-thia-10,13,16,19-tetraaza-tricyclo[19.4.0.0*3,8*]pentacosa-1(25),3,5,7,21,23-hexaen-11-yl]-propionamide]
17 | 14.2 | CN1C(=O)[C@H](CCCCN)NC(=O)[C@H](CCCN)NCc2cc(Br)ccc2Sc2c(Cl)cccc2CNC(=O)[C@@H]1Cc1c[nH]c2ccccc12 [Example 48, (12S,15S,18S)-15-(4-Amino-butyl)-18-(3-amino-propyl)-23-bromo-4-chloro-12-(1H-indol-3-ylmethyl)-13-methyl-2-thia-10,13,16,19-tetraaza-tricyclo[19.4.0.0*3,8*]pentacosa-1(25),3,5,7,21,23-hexaene-11,14,17-trione]
18 | 2.75 | Cc1[nH]c2ccccc2c1C[C@H]1C(=O)NCc2c(-c3ccncc3)ccc(Cl)c2Sc2ncccc2CN[C@@H](CCCN)C(=O)N[C@@H](CCCCN)C(=O)N1C [Example 47, (11S,14S,17S)-14-(4-Amino-butyl)-11-(3-amino-propyl)-25-chloro-16-methyl-17-(2-methyl-1H-indol-3-ylmethyl)-22-pyridin-4-yl-2-thia-4,10,13,16,19-pentaaza-tricyclo[19.4.0.0*3,8*]pentacosa-1(25),3(8),4,6,21,23-hexaene-12,15,18-trione]
19 | 23.5 | CN1C(=O)[C@H](CCC(N)=O)NC(=O)[C@H](CCCN)NCc2ccccc2Sc2c(cc(-c3ccccc3)cc2C(F)(F)F)CNC(=O)[C@@H]1Cc1c[nH]c2ccccc12 [Example 39, 3-[(11S,14S,17S)-11-(3-Amino-propyl)-17-(1H-indol-3-ylmethyl)-16-methyl-12,15,18-trioxo-23-phenyl-25-trifluoromethyl-2-thia-10,13,16,19-tetraaza-tricyclo[19.4.0.0*3,8*]pentacosa-1(25),3,5,7,21,23-hexaen-14-yl]-propionamide]
